Reference: article PMC8074941, “Synthesis of cyclotetrapeptide analogues of c-PLAI and evaluation of their antimicrobial properties” (Royal Society Open Science, 2021)
≈ marks a conversion by molar mass, not a printed value. Where a SMILES comes first, the peptide text is derived from it.

Legend:
[1] = head-to-tail lactamisation of linear tetrapeptide (N-terminal Pro amine + C-terminal Ile acid), HATU (2 equiv), DIPEA (3 equiv); settings: the molecule shown is the open-chain precursor; 12-membered ring; CH2Cl2 (with ca. 0.2-0.5% DMF); 0.4 mM; 25.0 °C; 1.5 h
T. mentagrophyte = assay: microbe, parasite or virus in culture; settings: 18 h
Method: (§1) Tools and materials were sterilized in an autoclave for 15 min at 121°C. Fungal culture was grown in agar media (Potato Dextrose agar) by picking some fungal colony using an inoculating loop, followed by incubation at 30°C for 24–48 h. Fungal culture was then suspended in liquid media (Potato Dextrose Broth). The suspended fungal culture was then incubated for 24–48 h at 30°C. The suspended fungal culture was then incubated at 30°C for 24 h and standardized equal to 0.5 Mc Farland (2 × 10^8 CFU ml^−1). The culture was diluted into the concentration of 5 × 10^5 CFU ml^−1.
(§2) Six tetrapeptides and six cyclotetrapeptides were dissolved in DMSO 2% with a concentration of 1 µg mL^−1. Each solution was dissolved gradually. Subsequently, 12 sample solutions, ciprofloxacin, nystatin, ketoconazole and DMSO 2% were incubated on a 96-well microplate at 37°C for 18 h. The result was interpreted using a spectrophotometer, with a wavelength of 600 nm. MIC was measured as the percentage of microbial inhibition and cell death.

S. aureus ATCC 6538 = assay: microbe, parasite or virus in culture; settings: ATCC 6538, 18 h
Method: (§3) Tools and materials were sterilized in an autoclave for 15 min at 121°C. Bacterial culture was grown in agar media (Mueller Hinton agar) by picking some bacterial colony using an inoculating loop, followed by incubation at 37°C for 24 h. Bacterial culture was then suspended in liquid media (Mueller Hinton Broth). The suspended bacterial culture was then incubated at 37°C for 24 h and standardized equal to 0.5 Mc Farland (2 × 10^8 CFU ml^−1). The culture was diluted into the concentration of 5 × 10^5 CFU ml^−1.
as §2

B. cereus ATCC 11778 = assay: microbe, parasite or virus in culture; settings: ATCC 11778, 18 h
Method: as §3, §2

K. pneumonia ATCC 2357 = assay: microbe, parasite or virus in culture; settings: ATCC 2357, 18 h
Method: as §3, §2

E. coli ATCC 11229 = assay: microbe, parasite or virus in culture; settings: ATCC 11229, 18 h
Method: as §3, §2

C. albicans ATCC 10231 = settings: ATCC 10231, 18 h
Method: as §1, §2

Compound | ring closure, isolated yield [1] [%] | minimum inhibitory concentration (MIC) T. mentagrophyte (T. mentagrophyte) [µg/mL] | minimum inhibitory concentration (MIC) S. aureus ATCC 6538 (S. aureus ATCC 6538) [µg/mL] | minimum inhibitory concentration (MIC) B. cereus ATCC 11778 (B. cereus ATCC 11778) [µg/mL] | minimum inhibitory concentration (MIC) K. pneumonia ATCC 2357 (K. pneumonia ATCC 2357) [µg/mL] | minimum inhibitory concentration (MIC) E. coli ATCC 11229 (E. coli ATCC 11229) [µg/mL] | minimum inhibitory concentration (MIC) C. albicans ATCC 10231 (C. albicans ATCC 10231) [µg/mL]
CC[C@H](C)[C@H](NC(=O)[C@@H]1CCCN1C(=O)[C@H](CC(C)C)NC(=O)[C@@H]1CCCN1)C(=O)O [H-Pro-Leu-Pro-Ile-OH] | 53 | – | – | – | – | – | –
CC[C@H](C)[C@@H]1NC(=O)[C@H](C)NC(=O)[C@H](CCCCN)NC(=O)[C@@H]2CCCN2C1=O [c-PKAI, cyclo-(pro-lys-ala-ile)] (cyclo(PKAI)) | – | 125 (≈ 305 µM) | 125 (≈ 305 µM) | 125 (≈ 305 µM) | 250 (≈ 610 µM) | 62.50 (≈ 153 µM) | 125 (≈ 305 µM)
CC[C@H](C)[C@H](NC(=O)[C@H](Cc1ccccc1)NC(=O)[C@H](CCCCNC(=O)OC(C)(C)C)NC(=O)[C@@H]1CCCN1)C(=O)O [H-Pro-Lys(Boc)-Phe-Ile-OH] | 50 | – | – | – | – | – | –
CC[C@H](C)[C@H](NC(=O)[C@H](C)NC(=O)[C@H](CCCCNC(=O)OC(C)(C)C)NC(=O)[C@@H]1CCCN1)C(=O)O [H-Pro-Lys(Boc)-Ala-Ile-OH] | 43 | – | – | – | – | – | –
CC[C@H](C)[C@H](NC(=O)[C@@H]1CCCN1C(=O)[C@H](CC(C)C)NC(=O)[C@@H]1CCCN1)C(=O)O [PLPI] (H-PLPI-OH) | – | 500 (≈ 1140 µM) | 500 (≈ 1140 µM) | 250 (≈ 570 µM) | 500 (≈ 1140 µM) | 500 (≈ 1140 µM) | >1000
CC[C@H](C)[C@@H]1NC(=O)[C@@H]2CCCN2C(=O)[C@H](CC(C)C)NC(=O)[C@@H]2CCCN2C1=O [c-PLPI, cyclo(pro-leu-pro-ile)] (cyclo(PLPI)) | – | – | 250 (≈ 594 µM) | – | 250 (≈ 594 µM) | 125 (≈ 297 µM) | >1000
CC[C@H](C)[C@@H]1NC(=O)[C@H](Cc2ccccc2)NC(=O)[C@H](CC(C)C)NC(=O)[C@@H]2CCCN2C1=O [c-PLFI, cyclo-(pro-leu-phe-ile)] (cyclo(PLFI)) | – | 250 (≈ 531 µM) | 500 (≈ 1060 µM) | 125 (≈ 266 µM) | 250 (≈ 531 µM) | 125 (≈ 266 µM) | 500 (≈ 1060 µM)
CC[C@H](C)[C@H](NC(=O)[C@H](C)NC(=O)[C@H](CCCCN)NC(=O)[C@@H]1CCCN1)C(=O)O [PKAI] (H-PKAI-OH) | – | 500 (≈ 1170 µM) | 500 (≈ 1170 µM) | 500 (≈ 1170 µM) | 500 (≈ 1170 µM) | 250 (≈ 585 µM) | 250 (≈ 585 µM)
CC[C@H](C)[C@H](NC(=O)[C@@H](NC(=O)[C@H](CC(C)C)NC(=O)[C@@H]1CCCN1)C(C)C)C(=O)O [PLVI] (H-PLVI-OH) | – | – | >1000 | 500 (≈ 1130 µM) | 500 (≈ 1130 µM) | 500 (≈ 1130 µM) | >1000
